Data reported in PubChem BioAssay AID256 (DTP/NCI, 2004).
Inconclusive results and toxic doses are left out. Rule for the calls: active = survival T/C of 150% or more; inactive = T/C below 125% in these data.

Tested on: CD2F1 mice, L1210 leukemia ip, survival T/C
Test: NCI In Vivo Anticancer Drug Screen. Data for tumor model L1210 Leukemia (intraperitoneal) in CD2F1 (CDF1) mice
Settings: higher = longer survival
Method in brief: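 Antitumor effect is scored in animals hosting a serially transplanted tumor. Values compare compound-dosed animals against vehicle-only controls as a simple quotient.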

[1] = endpoint: mean survival time, dose: 12.5 mg/kg/injection, schedule: Q01DX009 (ip), vehicle: saline
[2] = endpoint: mean survival time, dose: 100.0 mg/kg/injection, schedule: Q01DX009 (ip), vehicle: saline with Tween-80
[3] = endpoint: mean survival time, dose: 200.0 mg/kg/injection, schedule: Q01DX009 (ip), vehicle: saline with Tween-80
[4] = endpoint: mean survival time, dose: 400.0 mg/kg/injection, schedule: Q01DX009 (ip), vehicle: saline with Tween-80
[5] = endpoint: mean survival time, dose: 100.0 mg/kg/injection, schedule: Q04DX003 (ip), vehicle: saline with Tween-80
[6] = endpoint: mean survival time, dose: 200.0 mg/kg/injection, schedule: Q04DX003 (ip), vehicle: saline with Tween-80
[7] = endpoint: mean survival time, dose: 400.0 mg/kg/injection, schedule: Q04DX003 (ip), vehicle: saline with Tween-80
[8] = endpoint: mean survival time, dose: 50.0 mg/kg/injection, schedule: Q01DX009 (ip), vehicle: saline with Tween-80
[9] = endpoint: mean survival time, dose: 100.0 mg/kg/injection, schedule: Q01DX001 (ip), vehicle: saline with Tween-80
[10] = endpoint: mean survival time, dose: 200.0 mg/kg/injection, schedule: Q01DX001 (ip), vehicle: saline with Tween-80
[11] = endpoint: mean survival time, dose: 400.0 mg/kg/injection, schedule: Q01DX001 (ip), vehicle: saline with Tween-80

Measured: T/C

COc1cccc2c1C(=O)c1c(O)c3c(c(O)c1C2=O)C[C@@](O)(/C(C)=N\NC(=O)CO)C[C@@H]3OC1CC(N)C(O)C(C)O1 (some centres not stated)
inactive: endpoint: mean survival time, dose: 0.25 mg/kg/injection, schedule: Q01DX009 (ip), vehicle: water 103 % of control | endpoint: mean survival time, dose: 0.5 mg/kg/injection, schedule: Q01DX009 (ip), vehicle: water 101 % of control | endpoint: mean survival time, dose: 0.78 mg/kg/injection, schedule: Q01DX009 (ip), vehicle: water 107 % of control | endpoint: mean survival time, dose: 1.0 mg/kg/injection, schedule: Q01DX009 (ip), vehicle: water 98 % of control | endpoint: mean survival time, dose: 1.0 mg/kg/injection, schedule: Q04DX003 (ip), vehicle: saline with Tween-80 115 % of control | endpoint: mean survival time, dose: 1.56 mg/kg/injection, schedule: Q01DX009 (ip), vehicle: water 107 % of control | endpoint: mean survival time, dose: 2.0 mg/kg/injection, schedule: Q01DX009 (ip), vehicle: water 106 % of control | endpoint: mean survival time, dose: 2.0 mg/kg/injection, schedule: Q04DX003 (ip), vehicle: saline with Tween-80 113 % of control | endpoint: mean survival time, dose: 3.13 mg/kg/injection, schedule: Q01DX009 (ip), vehicle: water 119 % of control | endpoint: mean survival time, dose: 4.0 mg/kg/injection, schedule: Q01DX009 (ip), vehicle: water 111 % of control | endpoint: mean survival time, dose: 4.0 mg/kg/injection, schedule: Q04DX003 (ip), vehicle: saline with Tween-80 117 % of control | endpoint: mean survival time, dose: 8.33 mg/kg/injection, schedule: Q04DX003 (ip), vehicle: saline 121 % of control | [1] 101 % of control | endpoint: mean survival time, dose: 12.5 mg/kg/injection, schedule: Q01DX009 (ip), vehicle: water 115 % of control

Cc1ccc(C(C)(c2ccccc2)C(C)(CC=O)CC(=O)O)cc1 (configuration not stated)
inactive: [2] 95 % of control | [3] 94 % of control | [4] 97 % of control

COCCOCCN1CCN(CCCN2c3ccccc3Sc3ccc(C(F)(F)F)cc32)CC1
inactive: endpoint: mean survival time, dose: 37.5 mg/kg/injection, schedule: Q04DX003 (ip), vehicle: saline 113 % of control | endpoint: mean survival time, dose: 50.0 mg/kg/injection, schedule: Q04DX003 (ip), vehicle: saline 121 % of control

CN(C)C(=S)S
inactive: endpoint: mean survival time, dose: 50.0 mg/kg/injection, schedule: Q01DX001 (ip), vehicle: carboxymethylcellulose (CMC) 93 % of control | endpoint: mean survival time, dose: 100.0 mg/kg/injection, schedule: Q01DX001 (ip), vehicle: carboxymethylcellulose (CMC) 89 % of control | [5] 94 % of control | endpoint: mean survival time, dose: 200.0 mg/kg/injection, schedule: Q01DX001 (ip), vehicle: carboxymethylcellulose (CMC) 104 % of control | [6] 105 % of control | endpoint: mean survival time, dose: 400.0 mg/kg/injection, schedule: Q01DX001 (ip), vehicle: carboxymethylcellulose (CMC) 106 % of control | [7] 100 % of control

CN(C)CCCNC(=S)S
inactive: endpoint: mean survival time, dose: 6.0 mg/kg/injection, schedule: Q04DX003 (ip), vehicle: saline 95 % of control | endpoint: mean survival time, dose: 12.0 mg/kg/injection, schedule: Q04DX003 (ip), vehicle: saline 93 % of control | endpoint: mean survival time, dose: 25.0 mg/kg/injection, schedule: Q04DX003 (ip), vehicle: saline 106 % of control

Nc1nc(Cl)c2nnn(C3CC(O)C(CO)C3)c2n1 (configuration not stated)
inactive: endpoint: mean survival time, dose: 6.25 mg/kg/injection, schedule: Q01DX009 (ip), vehicle: Klucel (hydroxypropylcellulose) (HPC) 117 % of control | endpoint: mean survival time, dose: 12.5 mg/kg/injection, schedule: Q01DX009 (ip), vehicle: Klucel (hydroxypropylcellulose) (HPC) 106 % of control | endpoint: mean survival time, dose: 25.0 mg/kg/injection, schedule: Q01DX009 (ip), vehicle: Klucel (hydroxypropylcellulose) (HPC) 117 % of control

O=C(c1ccccc1)C1OC1c1ccccc1 (configuration not stated)
inactive: [2] 93 % of control | [5] 101 % of control | [3] 94 % of control | [6] 98 % of control | [4] 94 % of control | [7] 101 % of control

O=C(CCl)N1CCC2(CC1)SSC1(CCN(C(=O)CCl)CC1)S2
inactive: endpoint: mean survival time, dose: 12.5 mg/kg/injection, schedule: Q01DX009 (ip), vehicle: saline with Tween-80 94 % of control | endpoint: mean survival time, dose: 25.0 mg/kg/injection, schedule: Q01DX009 (ip), vehicle: saline with Tween-80 93 % of control | endpoint: mean survival time, dose: 25.0 mg/kg/injection, schedule: Q04DX003 (ip), vehicle: saline with Tween-80 89 % of control | [8] 97 % of control | endpoint: mean survival time, dose: 50.0 mg/kg/injection, schedule: Q04DX003 (ip), vehicle: saline with Tween-80 100 % of control | [5] 93 % of control

O=C(c1ccccc1)C1CC2CCC1CC2 (configuration not stated)
inactive: endpoint: mean survival time, dose: 50.0 mg/kg/injection, schedule: Q04DX002 (ip), vehicle: saline with Tween-80 96 % of control | endpoint: mean survival time, dose: 100.0 mg/kg/injection, schedule: Q04DX002 (ip), vehicle: saline with Tween-80 86 % of control | endpoint: mean survival time, dose: 200.0 mg/kg/injection, schedule: Q04DX002 (ip), vehicle: saline with Tween-80 93 % of control | endpoint: mean survival time, dose: 400.0 mg/kg/injection, schedule: Q04DX002 (ip), vehicle: saline with Tween-80 89 % of control

CCOC(=O)c1cc(-c2ccc3ccccc3n2)c(O)c2cc3ccccc3nc12
inactive: [5] 93 % of control | [6] 87 % of control | [7] 90 % of control

Nc1nnc(Cl)s1
inactive: [9] 108 % of control | [10] 104 % of control | [11] 97 % of control

COc1cc(OC)c2c[n+](C)c3c4cc(OC)c(OC)cc4ccc3c2c1
inactive: [1] 102 % of control | endpoint: mean survival time, dose: 25.0 mg/kg/injection, schedule: Q01DX009 (ip), vehicle: saline 102 % of control | endpoint: mean survival time, dose: 50.0 mg/kg/injection, schedule: Q01DX009 (ip), vehicle: saline 98 % of control

O=C(O)c1cn(C2OC(CO)C(O)C2O)c2nc[nH]c(=O)c12 (configuration not stated)
inactive: endpoint: median survival time, dose: 8.63 mg/kg/injection, schedule: Q01DX005 (ip), vehicle: saline with Tween-80 103 % of control | endpoint: median survival time, dose: 17.25 mg/kg/injection, schedule: Q01DX005 (ip), vehicle: saline with Tween-80 101 % of control | endpoint: median survival time, dose: 34.5 mg/kg/injection, schedule: Q01DX005 (ip), vehicle: saline with Tween-80 108 % of control | endpoint: median survival time, dose: 69.0 mg/kg/injection, schedule: Q01DX005 (ip), vehicle: saline with Tween-80 104 % of control | endpoint: median survival time, dose: 138.0 mg/kg/injection, schedule: Q01DX005 (ip), vehicle: saline with Tween-80 110 % of control

CCOC(=O)CN(c1c(C)cc([N+](=O)[O-])c2ccccc12)S(=O)(=O)c1ccccc1
inactive: [9] 97 % of control | [10] 94 % of control | [11] 96 % of control

CCCC(=O)Nc1ccn(C2OC(COC(=O)CCC)C(OC(=O)CCC)C2OC(=O)CCC)c(=O)n1 (configuration not stated)
inactive: endpoint: mean survival time, dose: 100.0 mg/kg/injection, schedule: Q01DX009 (ip), vehicle: Klucel (hydroxypropylcellulose) (HPC) 112 % of control | endpoint: mean survival time, dose: 200.0 mg/kg/injection, schedule: Q01DX009 (ip), vehicle: Klucel (hydroxypropylcellulose) (HPC) 114 % of control

NCCN1CCCC1
inactive: endpoint: mean survival time, dose: 100.0 mg/kg/injection, schedule: Q04DX002 (ip), vehicle: saline 96 % of control | endpoint: mean survival time, dose: 200.0 mg/kg/injection, schedule: Q04DX002 (ip), vehicle: saline 111 % of control | endpoint: mean survival time, dose: 400.0 mg/kg/injection, schedule: Q04DX002 (ip), vehicle: saline 103 % of control

Cc1ccc(C(O)(c2ccccc2)c2ccccc2C(=O)Nc2ccccc2)cc1 (configuration not stated)
inactive: [5] 88 % of control | [6] 90 % of control | [7] 95 % of control

Nc1cc(=O)[nH]c(O)c1C(=O)O
inactive: [8] 104 % of control | [2] 96 % of control

CC(CC(C)C(=O)O)C(=O)O (configuration not stated)
inactive: [2] 100 % of control | [3] 105 % of control
